Reference: ChEMBL document CHEMBL5096153, “Spirocyclic Scaffolds in Medicinal Chemistry” (J Med Chem, 2021)

How the values were obtained:
Influenza A virus = assay: Antiviral activity against wild-type Influenza A virus A/M2 assessed as viral growth inhibition; type: functional, organism-based
[1] = AUC (0 to 4 hrs) in rat at 5 mg/kg, po; type: ADME, organism-based; design: time < 4 hr, dose 5 mg/kg, route po; conditions: in vivo
[2] = Volume of distribution in rat at 2 mg/kg, iv; type: ADME, organism-based; conditions: in vivo
[3] = target: T1, Retinoic acid receptor RXR-alpha (Homo sapiens, UniProt P19793); assay: Agonist activity at RXRalpha (unknown origin) using fluorescein-D22 as substrate by fluorescence polarization assay
T1 sequence (P19793 whole entry): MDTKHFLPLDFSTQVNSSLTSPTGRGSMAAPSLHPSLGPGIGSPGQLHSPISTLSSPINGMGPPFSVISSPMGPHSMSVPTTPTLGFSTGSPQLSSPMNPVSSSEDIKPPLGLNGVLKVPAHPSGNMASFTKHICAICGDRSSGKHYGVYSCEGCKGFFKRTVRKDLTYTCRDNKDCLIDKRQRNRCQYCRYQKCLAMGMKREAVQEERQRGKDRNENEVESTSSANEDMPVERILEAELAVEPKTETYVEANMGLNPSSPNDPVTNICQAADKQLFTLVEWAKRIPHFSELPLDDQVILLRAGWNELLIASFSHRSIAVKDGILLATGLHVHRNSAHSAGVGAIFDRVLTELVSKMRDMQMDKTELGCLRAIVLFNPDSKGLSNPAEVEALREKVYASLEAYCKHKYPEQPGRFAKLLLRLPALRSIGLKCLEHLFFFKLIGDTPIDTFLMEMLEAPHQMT

[4] = Inhibition of Plasmodium vivax SHMT
[5] = Octanol-water partition coefficient, log P of the compound by LC-MS/MS analysis; type: physicochemical
[6] = Metabolic stability in human liver microsomes assessed as compound remaining; type: ADME, Microsome
[7] = Cytotoxicity against human HUVEC cells assessed as reduction in cell viability; type: toxicity, cell-based
[8] = Selectivity ratio of Ki for rat liver Sigma2 receptor to Ki for Guinea pig brain Sigma1 receptor
[9] = target: T2, Retinoic acid receptor RXR-alpha (Homo sapiens) (UniProt P19793); assay: Agonist activity at RXRalpha (unknown origin) using fluorescein-D22 as substrate by fluorescence polarization assay relative to control
T2 sequence (whole entry): T1 sequence (P19793 whole entry)

[10] = target: NF-kappa-B essential modulator (Homo sapiens, UniProt Q9Y6K9); assay: Binding affinity to full-length human NEMO (1 to 419 residues) assessed as dissociation constant
Sequence of NF-kappa-B essential modulator (Q9Y6K9 whole entry, the tested form may be a part): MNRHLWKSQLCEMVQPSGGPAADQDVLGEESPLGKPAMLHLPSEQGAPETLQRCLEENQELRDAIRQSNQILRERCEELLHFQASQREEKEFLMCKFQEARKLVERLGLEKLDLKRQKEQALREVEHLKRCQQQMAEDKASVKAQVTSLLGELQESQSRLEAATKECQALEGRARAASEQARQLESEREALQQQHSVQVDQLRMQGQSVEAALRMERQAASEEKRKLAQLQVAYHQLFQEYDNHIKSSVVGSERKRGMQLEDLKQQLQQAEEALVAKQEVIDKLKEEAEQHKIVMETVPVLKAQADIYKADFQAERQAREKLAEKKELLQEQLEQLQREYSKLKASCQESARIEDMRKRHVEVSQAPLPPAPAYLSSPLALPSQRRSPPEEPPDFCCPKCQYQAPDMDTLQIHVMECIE

[11] = target: Phosphoglycerate mutase 1 (Homo sapiens, UniProt P18669); assay: Inhibition of PGAM1 in human MDA-MB-231 cells; type: cell-based
Sequence of Phosphoglycerate mutase 1 (P18669 whole entry): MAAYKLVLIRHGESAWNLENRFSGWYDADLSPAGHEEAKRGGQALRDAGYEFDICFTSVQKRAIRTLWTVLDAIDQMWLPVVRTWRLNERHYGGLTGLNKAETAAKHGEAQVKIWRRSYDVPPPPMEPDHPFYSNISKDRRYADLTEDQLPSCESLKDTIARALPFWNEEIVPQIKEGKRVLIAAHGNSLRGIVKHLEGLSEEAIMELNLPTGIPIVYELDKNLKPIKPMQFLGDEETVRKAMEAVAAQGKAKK

MDA-MB-231 = assay: Cytotoxicity against human MDA-MB-231 cells assessed as cell growth inhibition; type: functional, cell-based
[12] = Cmax in rat plasma at 5 mg/kg, po; type: ADME, organism-based; design: dose 5 mg/kg, route po
[13] = AUC (0 to infinity) in rat plasma at 5 mg/kg, po; type: ADME, organism-based; design: time infinity, dose 5 mg/kg, route po

In the case of NC1CCC2(CCCC2)CC1, the IC50 (Influenza A virus) is reported as 3300 nM.

COc1ccc2nc3c(nc2c1)O[C@@H]1C[C@H]2C(=O)N[C@]4(C(=O)NS(=O)(=O)C5(C)CC5)C[C@H]4/C=C\CCCCC[C@H](NC(=O)O[C@@H]4CCC[C@H]4CCCCC3)C(=O)N2C1 gave an AUC(0-t) at 4 h [1] of 0.77 µM·h and a Vd [2] of 4 L/kg.

CC1(C)CCC(C)(C)c2cc3c(cc21)CCC1(CCc2cc(C(=O)O)ccc2O1)O3 (racemic) [listing 1 of 2 here] showed an EC50 [3] of 730 nM.

With Cc1[nH]nc2c1[C@@]1(C(C#N)=C(N)O2)c2cc(N3CCC(CC(=O)O)CC3)cc(F)c2CC1(C)C the IC50 [4] was 2510 nM.

Work on O=C1Nc2ccc(Cl)cc2C12Cc1ccccc1B(O)O2 (centres undefined) yielded a logP [5] of under 4 and a Stability [6] of over 80%.

With CN1C(=O)C2(Cc3ccccc3B(O)O2)c2ccccc21 (centres undefined) the logP [5] was under 4 and the Stability [6] was over 80%.

Molecule O=C1Nc2ccc(F)cc2C12Cc1ccccc1B(O)O2 (centres undefined) has a logP [5] of under 4 and a Stability [6] of over 80%.

Work on COc1ccc(Cn2nnc3c2[C@]2(CC[C@H]3OC(=O)NC(C)C)CO2)cc1 yielded an EC50 [7] of 94 nM.

For NC1CC[Si]2(CCCC2)CC1, the IC50 (Influenza A virus) was 7800 nM.

c1ccc(CN2CC[Si]3(CCCc4ccccc43)CC2)cc1 showed a Ratio Ki [8] of 221.

With Cc1[nH]nc2c1C1(C(C#N)=C(N)O2)c2cc(N3CCC(CC(=O)O)CC3)cc(F)c2CC1(C)C (racemic) the IC50 [4] was 61 nM.

CC1(C)CCC(C)(C)c2cc3c(cc21)CCC1(CCc2cc(C(=O)O)ccc2O1)O3 (stereo in doubt; form 2) [listing 1 of 2 here] showed an Efficacy [9] of 26%.

In the case of CC1(C)CCC(C)(C)c2cc3c(cc21)CCC1(CCc2cc(C(=O)O)ccc2O1)O3 (stereo in doubt; form 1) [listing 1 of 2 here], the Efficacy ([9]; filed as agonist) is reported as 54%.

O=C1Nc2cc(C(F)(F)F)ccc2C12Cc1ccccc1B(O)O2 (centres undefined) showed a logP [5] of under 4 and a Stability [6] of over 80%.

Work on CC1(C)CCC(C)(C)c2cc3c(cc21)CCC1(CCc2cc(C(=O)O)ccc2O1)O3 (racemic) [listing 2 of 2 here] yielded an Efficacy ([9]; filed as agonist) of 53%.

CC1(C)CCC(C)(C)c2cc3c(cc21)CCC1(CCc2cc(C(=O)O)ccc2O1)O3 (stereo in doubt; form 1) [listing 2 of 2 here] gave an EC50 [3] of 170 nM.

Molecule c1ccc(CN2CCC3(CCCc4ccccc43)CC2)cc1 has a Ratio Ki [8] of 22.

Cc1ccc([C@@H]2[C@H]3C=C(C=O)[C@@H](c4ccc(C)cc4)[C@H]([N+](=O)[O-])[C@@H]3C[C@]23C(=O)N(C)c2ccccc23)cc1 gave a Kd [10] of 190 nM.

Molecule O=C1Nc2cc(Cl)ccc2C12Cc1ccccc1B(O)O2 (centres undefined) has a logP [5] of under 4 and a Stability [6] of over 80%.

O=C1Nc2ccccc2C12Cc1ccccc1B(O)O2 (centres undefined) gave a logP [5] of under 4 and a Stability [6] of over 80%.

For Cc1[nH]nc2c1[C@]1(C(C#N)=C(N)O2)c2cc(N3CCC(CC(=O)O)CC3)cc(F)c2CC1(C)C, the IC50 [4] was 43 nM.

For C#CCCCC(=O)OC(C)(C)C1CCC2(CO2)C(OC(=O)N[C@@H](Cc2c[nH]c3ccccc23)C(=O)OCc2ccccc2)C1 (some centres undefined), the IC50 [11] was 33000 nM and the IC50 (MDA-MB-231) was 19000 nM.

With Cc1ccc([C@@H]2[C@H]3C=C(C=O)[C@@H](c4ccc(C)cc4)[C@H]([N+](=O)[O-])[C@@H]3C[C@@]23C(=O)N(C)c2ccccc23)cc1 the Kd [10] was 80 nM.

Molecule CC1(C)CCC(C)(C)c2cc3c(cc21)CCC1(CCc2cc(C(=O)O)ccc2O1)O3 (stereo in doubt; form 2) [listing 2 of 2 here] has an EC50 [3] of 1200 nM.

Work on COc1ccc2nc3c(nc2c1)O[C@@H]1C[C@H]2C(=O)N[C@]4(C(=O)NS(=O)(=O)C5(C)CC5)C[C@H]4/C=C\CCCCC[C@H](NC(=O)O[C@@H]4CCC[C@H]4CCCCC3)C(=O)N2C1.[K+] yielded a Cmax [12] of 70 nM and an AUC(0-inf) [13] of 2.4 µM·h.
